Assay results published in patent publication US7390806B2, “Antibiotics containing borinic acid complexes and methods of use” (Anacor Pharmaceuticals, Inc., priority 2002, dated 2008).
Values after ≈ are worked out from the molar mass of the structure shown. Read-outs that look alike come from different tables or passages of the source.

What was measured:
[1] = tested on: S. pneumoniae ATCC 6301; test: MIC determination, S. pneumoniae ATCC 6301; assay type: cell-based, Streptococcus pneumoniae; settings: for MIC S. pneumoniae ATCC 6301: Table 1; for MIC: Streptococcus pneumoniae
[2] = tested on: S. aureus ATCC 29213; test: MIC determination, S. aureus ATCC 29213; assay type: cell-based, Staphylococcus aureus; settings: for MIC: Staphylococcus aureus
[3] = tested on: S. epidermidis ATCC 12228; test: MIC determination, S. epidermidis ATCC 12228; assay type: cell-based, Staphylococcus epidermidis; settings: for MIC: Staphylococcus epidermidis
[4] = tested on: M. catarrhalis ATCC 25238; test: MIC determination, M. catarrhalis ATCC 25238; assay type: cell-based; settings: for MIC M. catarrhalis ATCC 25238: Table 1; for MIC: Moraxella catarrhalis
[5] = tested on: E. faecium CT-26; test: MIC determination, E. faecium CT-26; assay type: cell-based, Enterococcus faecium; settings: for MIC: Enterococcus faecium
[6] = tested on: E. faecalis ATCC 29212; test: MIC determination, E. faecalis ATCC 29212; assay type: cell-based, Enterococcus faecalis; settings: for MIC: Enterococcus faecalis
[7] = ATCC6301, Table 1, read-out: MIC S. pneumoniae ATCC 6301
[8] = ATCC29213, Table 1, read-out: MIC S. aureus ATCC 29213
[9] = ATCC12228, Table 1, read-out: MIC S. epidermidis ATCC 12228
[10] = ATCC25238, Table 1, read-out: MIC M. catarrhalis ATCC 25238
[11] = CT26, Table 1, read-out: MIC E. faecium CT-26
[12] = ATCC29212, Table 1, read-out: MIC E. faecalis ATCC 29212

Row | Molecule | MIC S. pneumoniae ATCC 6301 [1] [micrograms per ml] | MIC S. aureus ATCC 29213 ([2]; Table 1) [micrograms per ml] | MIC S. epidermidis ATCC 12228 ([3]; Table 1) [micrograms per ml] | MIC M. catarrhalis ATCC 25238 [4] [micrograms per ml] | MIC E. faecium CT-26 ([5]; Table 1) [micrograms per ml] | MIC E. faecalis ATCC 29212 ([6]; Table 1) [micrograms per ml] | further results
1 | Oc1cccc2cccnc12 [Compound 84, 8-hydroxyquinoline] | 2 | 2 | 1 | 4 | 4 | 8 | –
2 | Nc1ccc2cccc(O)c2n1 [Compound 17] | – | – | – | – | – | – | MIC ([1]; ATCC6301, read-out: MIC S. pneumoniae ATCC 6301): 2 µg/mL (≈ 12.5 µM); MIC ([2]; ATCC29213, read-out: MIC S. aureus ATCC 29213): 0.25 µg/mL (≈ 1.56 µM); MIC ([3]; ATCC12228, read-out: MIC S. epidermidis ATCC 12228): 2 µg/mL (≈ 12.5 µM); MIC ([4]; ATCC25238, read-out: MIC M. catarrhalis ATCC 25238): 2 µg/mL (≈ 12.5 µM); MIC ([5]; CT26, read-out: MIC E. faecium CT-26): 8 µg/mL (≈ 49.9 µM); MIC ([6]; ATCC29212, read-out: MIC E. faecalis ATCC 29212): 8 µg/mL (≈ 49.9 µM)
3 | Oc1cccc2cccnc12 [Compound 29, 8-hydroxyquinoline] | 2 | 0.5 | 1 | 0.5 | 2 | 8 | –
4 | CB(Oc1cccc2cccnc12)c1cccs1 [Compound 26, (2-Thienyl)methylborinic acid 8-hydroxyquinoline ester] | – | 0.5 | 1 | – | 4 | 4 | –
5 | Oc1cccc2cccnc12 [Compound 45, 8-hydroxyquinoline] | 1 | 1 | 1 | 1 | 1 | 8 | –
6 | Oc1cccc2cccnc12 [Compound 99, 8-hydroxyquinoline] | 2 | 2 | 1 | 1 | 2 | 8 | –
7 | Oc1ccc(F)c2cccnc12 [Compound 35] | 2 | 1 | 2 | 2 | 4 | 8 | –
8 | Oc1cccc2cccnc12 [Compound 77, 8-hydroxyquinoline] | 1 | 2 | 1 | 2 | 4 | 8 | –
9 | Oc1cccc2cccnc12 [Compound 87, 8-hydroxyquinoline] | 2 | 2 | 1 | 1 | 4 | 8 | –
10 | Oc1cccc2cccnc12 [Compound 80, 8-hydroxyquinoline] | 2 | 2 | 1 | 2 | 4 | 4 | –
11 | COc1cccc2c(O)cc(C(=O)O)nc12 [Compound 25] | – | – | – | – | – | – | MIC [1, 7]: 2 µg/mL (≈ 9.12 µM); MIC [2, 8]: 0.5 µg/mL (≈ 2.28 µM); MIC [3, 9]: 8 µg/mL (≈ 36.5 µM); MIC [4, 10]: 2 µg/mL (≈ 9.12 µM); MIC [5, 11]: 16 µg/mL (≈ 73 µM); MIC [6, 12]: 16 µg/mL (≈ 73 µM)
12 | Oc1cccc2cccnc12 [Compound 33, 8-hydroxyquinoline] | 1 | 1 | 1 | 2 | 2 | 8 | –
13 | Oc1cccc2cccnc12 [Compound 41, 8-hydroxyquinoline] | 1 | 1 | 1 | 1 | 2 | 4 | –
14 | Oc1cccc2cccnc12 [Compound 27, 8-hydroxyquinoline] | 1 | 0.5 | 1 | 1 | 2 | 8 | –
15 | C#CB(Oc1cccc2cccnc12)c1ccccc1Cl [Compound 43, (2-Chlorophenyl)ethynylborinic acid 8-Hydroxyquinoline ester] | 1 | 1 | 1 | 1 | 2 | 8 | –
16 | Oc1cccc2cccnc12 [Compound 18, 8-hydroxyquinoline] | 2 | 0.25 | 1 | 1 | 4 | 8 | –
17 | Oc1cccc2cccnc12 [Compound 15, 8-hydroxyquinoline] | 2 | 0.125 | 1 | 0.5 | 4 | 16 | –
18 | Oc1cccc2cccnc12 [Compound 81, 8-hydroxyquinoline] | 2 | 2 | 1 | 2 | 4 | 8 | –
19 | Oc1cccc2cccnc12 [Compound 52, 8-hydroxyquinoline] | – | 2 | 4 | – | 16 | 8 | –
20 | Oc1cccc2cccnc12 [Compound 79, 8-hydroxyquinoline] | 2 | 2 | 2 | 2 | 4 | 8 | –
21 | O=[N+]([O-])c1ccc(O)c2ncccc12 [Compound 22] | – | – | – | – | – | – | MIC [1, 7]: 2 µg/mL (≈ 10.5 µM); MIC [2, 8]: 0.5 µg/mL (≈ 2.63 µM); MIC [3, 9]: 4 µg/mL (≈ 21 µM); MIC [4, 10]: 0.12 µg/mL (≈ 0.631 µM); MIC [5, 11]: 16 µg/mL (≈ 84.1 µM); MIC [6, 12]: 64 µg/mL (≈ 337 µM)
22 | Oc1cccc2cccnc12 [Compound 86, 8-hydroxyquinoline] | 2 | 2 | 1 | 2 | 4 | 8 | –
23 | Oc1c(Cl)cc(Cl)c2cccnc12 [Compound 23] | – | 0.5 | 16 | – | 16 | – | MIC [1, 7]: 8 µg/mL (≈ 37.4 µM); MIC [4, 10]: 0.12 µg/mL (≈ 0.561 µM); MIC [6, 12]: 64 µg/mL (≈ 299 µM)
24 | Oc1cccc2nc[nH]c12 [Compound 11, 4-hydroxybenzimidazole] | – | – | – | – | – | – | MIC [2, 8]: 0.125 µg/mL (≈ 0.932 µM); MIC [3, 9]: 4 µg/mL (≈ 29.8 µM); MIC [5, 11]: 8 µg/mL (≈ 59.6 µM); MIC [6, 12]: 8 µg/mL (≈ 59.6 µM)
25 | 4-hydroxybenzimidazole [Compound 120] | – | – | – | – | – | – | MIC S. aureus ATCC 29213 ([2]; Table 2): 0.125 micrograms per ml; MIC S. epidermidis ATCC 12228 ([3]; Table 2): 4 micrograms per ml; MIC E. faecium CT-26 ([5]; Table 2): 8 micrograms per ml; MIC E. faecalis ATCC 29212 ([6]; Table 2): 8 micrograms per ml
26 | O=C(O)c1cc(O)c2ccccc2n1 [Compound 31] | – | – | – | – | – | – | MIC [2, 8]: 1 µg/mL (≈ 5.29 µM); MIC [3, 9]: 1 µg/mL (≈ 5.29 µM); MIC [5, 11]: 1 µg/mL (≈ 5.29 µM); MIC [6, 12]: 2 µg/mL (≈ 10.6 µM)
27 | Oc1cccc2cccnc12 [Compound 76, 8-hydroxyquinoline] | – | 2 | 1 | – | 4 | 8 | –
28 | Oc1cccc2cccnc12 [Compound 30, 8-hydroxyquinoline] | – | 1 | 0.5 | – | 2 | 2 | –
